In patent publication US20240051937A1, “ISOINDOLINONE AMIDE COMPOUNDS USEFUL TO TREAT DISEASES ASSOCIATED WITH GSPT1” (Monte Rosa Therapeutics, Inc., priority 2021, published 2024):
Like-named read-outs stand apart in the source and are kept apart here.

Key:
[1] = target: T1, Full length wild-type cereblon CRBN (Homo sapiens, UniProt Q96SW2); assay: Fluorescence polarization (FP) assay indicating cereblon binding
T1 construct: Full length wild-type cereblon CRBN (80.0 nM, 10 μL) was incubated in assay buffer
T1 sequence (Q96SW2 whole entry): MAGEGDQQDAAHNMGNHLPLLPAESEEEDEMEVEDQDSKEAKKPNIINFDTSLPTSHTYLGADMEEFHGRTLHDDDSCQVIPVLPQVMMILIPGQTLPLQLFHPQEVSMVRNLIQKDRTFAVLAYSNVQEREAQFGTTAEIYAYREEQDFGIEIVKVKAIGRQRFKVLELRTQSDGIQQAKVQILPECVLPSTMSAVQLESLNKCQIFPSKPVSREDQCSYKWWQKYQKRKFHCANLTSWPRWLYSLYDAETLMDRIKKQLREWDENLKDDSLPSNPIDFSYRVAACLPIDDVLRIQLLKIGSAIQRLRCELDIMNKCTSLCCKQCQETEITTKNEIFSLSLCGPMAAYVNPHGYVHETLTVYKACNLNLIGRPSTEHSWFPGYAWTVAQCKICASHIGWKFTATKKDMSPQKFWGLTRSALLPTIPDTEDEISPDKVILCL
From the text: Protocol for Fluorescent Polarization Assay
Compound activity was monitored in a fluorescence polarization (FP) homogeneous assay using 1-[5-({2-[2-(2-{[2-(2,6-dioxopiperidin-3-yl)-1,3-dioxo-2,3-dihydro-1H-isoindol-4-yl]oxy}acetamido)ethoxy]ethyl}carbamoyl)pentyl]-3,3-dimethyl-2-[(1E,3E)-5-[(2E)-1,3,3-trimethyl-5-sulfo-2,3-dihydro-1H-indol-2-ylidene]penta-1,3-dien-1-yl]-3H-indol-1-ium-5-sulfonate as a fluorescent probe. Unless otherwise stated, all reagents were purchased from Sigma Aldrich. Enzymatic reactions were conducted in Perkin-Elmer Black 384 well ProxiPlate Plus (catalogue no. 6008269) in 10 μL total volume. Full length wild-type cereblon CRBN (80.0 nM, 10 μL) was incubated in assay buffer containing 20 mM HEPES (pH 8.0), […], 0.5 mM TCEP and 0.05% Tween 20 in the presence or absence of compound (300 nL). Inhibitors were stored as 10 mM DMSO stocks in an inert environment (low humidity, dark, low oxygen, room temperature) using the Storage Pod System. Compounds and DMSO were dispensed using the Echo E5XX (Labcyte Inc. USA) to give concentrations from 300 to 0.937 or 3000 to 9.3 nM in a 12 data point curve. […] Following incubation at room temperature for 30 min, the assay was initiated by dispensing the probe to a final concentration of 5 nM (2.5 nL of a 20 μM stock) using the Echo E5XX. FP was measured after a period of 12 hours using a Pherastar plate reader (BMG Labtech, Germany) exciting at 590 nm and measuring the amount of parallel and perpendicular light at 675 nm. The FP signal was subsequently normalized to the no-compound control (i.e., DMSO). Analysis and IC50 values were derived using Dotmatics (Dotmatics UK) software.

GSPT1 = GSPT1 (Homo sapiens, UniProt P15170+Q96SW2); assay: Immunofluorescence assay for GSPT1 degradation in CAL-Si cells; assay type: cell-based; set-up: CAL-Si cells were purchased from DSMZ (cat. Number ACC302); host or cells: CAL-Si (CAL-51) cells; conditions: 6 hours treatment
GSPT1, sequence (P15170 whole entry): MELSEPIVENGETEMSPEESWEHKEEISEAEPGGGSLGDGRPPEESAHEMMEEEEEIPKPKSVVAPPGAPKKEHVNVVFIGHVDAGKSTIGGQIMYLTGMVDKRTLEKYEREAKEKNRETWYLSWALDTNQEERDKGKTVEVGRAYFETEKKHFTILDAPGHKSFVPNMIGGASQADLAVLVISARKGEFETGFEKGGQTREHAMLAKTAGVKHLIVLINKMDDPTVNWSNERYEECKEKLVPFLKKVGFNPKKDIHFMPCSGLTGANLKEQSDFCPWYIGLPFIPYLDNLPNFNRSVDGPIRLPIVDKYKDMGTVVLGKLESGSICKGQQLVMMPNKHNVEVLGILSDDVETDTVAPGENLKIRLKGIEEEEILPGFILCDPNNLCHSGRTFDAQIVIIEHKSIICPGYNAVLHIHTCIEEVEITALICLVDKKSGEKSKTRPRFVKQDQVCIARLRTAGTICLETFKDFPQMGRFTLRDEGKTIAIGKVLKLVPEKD
GSPT1, sequence (Q96SW2 whole entry): as the sequence (Q96SW2 whole entry) above
GSPT1, sequence (Q16531 whole entry partner): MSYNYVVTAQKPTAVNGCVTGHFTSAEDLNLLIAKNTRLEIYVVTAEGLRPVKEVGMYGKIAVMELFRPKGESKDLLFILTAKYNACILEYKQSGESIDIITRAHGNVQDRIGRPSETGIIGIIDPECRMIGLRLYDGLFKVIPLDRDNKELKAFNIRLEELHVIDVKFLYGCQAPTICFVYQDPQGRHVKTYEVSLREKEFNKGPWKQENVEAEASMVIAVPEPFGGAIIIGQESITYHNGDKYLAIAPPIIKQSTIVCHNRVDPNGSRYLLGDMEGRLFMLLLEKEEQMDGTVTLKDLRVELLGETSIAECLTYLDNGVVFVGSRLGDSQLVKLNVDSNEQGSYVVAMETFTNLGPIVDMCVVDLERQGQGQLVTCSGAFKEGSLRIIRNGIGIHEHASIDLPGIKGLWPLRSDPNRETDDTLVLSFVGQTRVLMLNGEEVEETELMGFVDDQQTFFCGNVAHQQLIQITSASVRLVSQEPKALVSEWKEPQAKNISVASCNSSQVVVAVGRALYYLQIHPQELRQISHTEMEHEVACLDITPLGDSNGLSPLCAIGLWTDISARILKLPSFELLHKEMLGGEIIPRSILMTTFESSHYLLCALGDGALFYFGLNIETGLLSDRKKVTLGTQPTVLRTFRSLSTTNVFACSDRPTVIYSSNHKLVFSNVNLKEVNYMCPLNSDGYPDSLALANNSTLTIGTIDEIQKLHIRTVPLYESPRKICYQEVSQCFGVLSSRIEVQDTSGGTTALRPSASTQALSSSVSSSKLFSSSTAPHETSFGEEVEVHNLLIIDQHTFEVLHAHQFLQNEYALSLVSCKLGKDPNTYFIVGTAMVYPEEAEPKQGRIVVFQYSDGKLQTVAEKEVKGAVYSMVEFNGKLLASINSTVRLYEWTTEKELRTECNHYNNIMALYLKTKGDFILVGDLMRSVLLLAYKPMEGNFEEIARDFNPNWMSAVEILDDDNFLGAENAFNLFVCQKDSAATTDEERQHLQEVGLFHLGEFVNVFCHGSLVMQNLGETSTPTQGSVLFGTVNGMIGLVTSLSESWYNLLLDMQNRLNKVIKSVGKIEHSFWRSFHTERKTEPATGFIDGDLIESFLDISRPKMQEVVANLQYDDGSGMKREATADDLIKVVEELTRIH
Procedure: The representative compounds were tested in an immunofluorescence assay for their activity to bind to degrade GSPT1. CAL-Si cells were purchased from DSMZ (cat. Number ACC302), sub-cultured in 90% Dulbecco's MEM (4.5 g/L glucose, Gibco 11965)+10% […] inactivated FBS (BioConcept, 2-01F136I) and incubated at 37° C., 5% CO2. For the assay, imaging microtiterplate Cell Carrier 96 Ultra (Perkin Elmer 6055302) were pre-coated with Fibronectin (Sigma F085, 30 μl at 0.2 μg/ml) in PBS (100 μl, Gibco 14190) for 45 min at room temperature, rinsed with PBS and CAL-Si cells (30K cells/well) were plated and let to adhere overnight. Cells were treated with compounds typically using a serial dilution ranging from 30 μM to 0.1 nM for 6 hours. Compounds were stored at 10 mM DMSO stocks. Vehicle (DMSO), positive (CC-885, 10 μM) and rescue controls (positive control plus 0.2 μM bortezomib) were also included at this stage. Cells were subsequently rinsed with PBS and fixed in 10% Formalin solution (50 μl, Sigma HT5011)) for 20 mins at room temperature. Following three consecutive PBS washes (100 μl), cells were permeabilized in 0.1% Triton X-100 in PBS (Sigma 93443, 50 μl) for 15 mins at room temperature. Following three further PBS washes, […] blocking buffer (1% BSA, Sigma A4503, in PBS) was added for 45 min for signal-to-noise reduction.
Primary antibody (human GSPT1, Sigma HPA052488) was diluted in blocking buffer (dil.1/300, 35 μl/well) and incubated with the cells overnight at 4° C. After three PBS washes, Alexa-fluor 488 coupled secondary antibodies (Invitrogen, A32731, dil.1/1000), Alexa-fluor 647-Phalloidin (Invitrogen, A22287, dil.1/200) and DAPI (Thermo, #62248, dil.1/1000) were diluted in blocking buffer and incubated with the samples for 2 hours at room temperature. After three final PBS washes, samples were conserved in […] PBS in the dark, until measurement. Image acquisition was performed on the Operetta High-Content Imager (Perkin-Elmer). Fluorescence intensity of Alexa-Fluor 488 (GSPT1), Alexa-Fluor 647 (Actin) and DAPI (Nucleus) were measured. For the determination of GSPT1 DC50 values, a custom algorithm implemented in the PerkinElmer image analysis software Harmony-Acapella® was developed. After user-defined setting of adjustment parameters, the analysis was run identically without human intervention for all image fields. DAPI staining of the nuclei was used to determine the location of cells using standard nuclei detection modules. Segmentation artifacts were removed by threshold-based filters for area, roundness and intensity. The outline of the cells was determined analogously from the sum of the normalized, smoothed DAPI and Actin channel, starting from each nucleus.
The Alexa-Fluor 488 (GSPT1) signal intensity in each cell was finally measured, in order to obtain a Mean intensity per cell. GSPT1 degradation (DC50) was calculated after normalization to controls and data import in CDD vault Database, using non-linear regression.

[2] = cereblon binding, CRBN 80.0 nM, probe 5 nM, FP read after 12 hours, read-out: rFP IC50
[3] = fluorescence polarization assay, read-out: IC50 value (cereblon binding)
[4] = read-out: Code: activity for GSPT1 degradation (DC50)
[5] = GSPT1 degradation, read-out: DC50

Row | Compound | IC50 [1, 2] | IC50 [1, 3] | DC50 (GSPT1; [4]) | DC50 (GSPT1; [5])
1 | Cc1ncc(NC(=O)CCc2ccc3c(c2)C(=O)N(C2CCC(=O)NC2=O)C3)cc1Cl (stereo not drawn) [Compound 3] | ≤ 500 nM | < 1100 nM | 30 to 300 nM | –
2 | O=C1CCC(N2Cc3ccc(CCC(=O)NC4CCCCC4)cc3C2=O)C(=O)N1 (stereo not drawn) [Compound 4] | 500 to 1100 nM | < 1100 nM | > 300 nM | –
3 | O=C1CCC(N2Cc3ccc(CCC(=O)Nc4cccc(OC(F)(F)F)c4)cc3C2=O)C(=O)N1 (stereo not drawn) [Compound 5] | 1100 to 1700 nM | – | 30 to 300 nM | –
4 | CC(C)CCNC(=O)CCc1ccc2c(c1)C(=O)N(C1CCC(=O)NC1=O)C2 (stereo not drawn) [Compound 6] | > 1700 nM | – | > 300 nM | –
5 | Cc1cc(C)cc(NC(=O)CCc2ccc3c(c2)C(=O)N(C2CCC(=O)NC2=O)C3)c1 (stereo not drawn) [Compound 7] | 500 to 1100 nM | < 1100 nM | ≤ 30 nM | 25 nM
6 | O=C1CCC(N2Cc3ccc(CCC(=O)Nc4ccc(F)c(Cl)c4)cc3C2=O)C(=O)N1 (stereo not drawn) [Compound 8] | 500 to 1100 nM | < 1100 nM | 30 to 300 nM | –
7 | O=C(CCc1ccc2c(c1)C(=O)N(C1CCC(=O)NC1=O)C2)NCC1CC1 (stereo not drawn) [Compound 9] | 500 to 1100 nM | < 1100 nM | > 300 nM | –
8 | COc1cc(C)c(Cl)cc1NC(=O)CCc1ccc2c(c1)C(=O)N(C1CCC(=O)NC1=O)C2 (stereo not drawn) [Compound 10] | 500 to 1100 nM | < 1100 nM | > 300 nM | –
9 | O=C1CCC(N2Cc3ccc(CCC(=O)Nc4cc(Cl)cc(OC(F)(F)F)c4)cc3C2=O)C(=O)N1 (stereo not drawn) [Compound 11] | > 1700 nM | – | ≤ 30 nM | 17 nM
10 | O=C1CCC(N2Cc3ccc(CCC(=O)NC4CCN(c5ccccn5)CC4)cc3C2=O)C(=O)N1 (stereo not drawn) [Compound 12] | 500 to 1100 nM | < 1100 nM | > 300 nM | –
11 | O=C1CCC(N2Cc3ccc(CCC(=O)N4CCCCC4)cc3C2=O)C(=O)N1 (stereo not drawn) [Compound 13] | > 1700 nM | – | > 300 nM | –
12 | COc1ccc(Cl)cc1NC(=O)CCc1ccc2c(c1)C(=O)N(C1CCC(=O)NC1=O)C2 (stereo not drawn) [Compound 14] | 500 to 1100 nM | < 1100 nM | > 300 nM | –
13 | O=C1CCC(N2Cc3ccc(CCC(=O)N4CCCC4)cc3C2=O)C(=O)N1 (stereo not drawn) [Compound 15] | 1100 to 1700 nM | – | > 300 nM | –
14 | COc1cc(Cl)ccc1NC(=O)CCc1ccc2c(c1)C(=O)N(C1CCC(=O)NC1=O)C2 (stereo not drawn) [Compound 16] | ≤ 500 nM | < 1100 nM | > 300 nM | –
15 | O=C1CCC(N2Cc3ccc(CCC(=O)NC4CCCC4)cc3C2=O)C(=O)N1 (stereo not drawn) [Compound 17] | 500 to 1100 nM | < 1100 nM | > 300 nM | –
16 | O=C1CCC(N2Cc3ccc(CCC(=O)Nc4cc(F)cc(Cl)c4)cc3C2=O)C(=O)N1 (stereo not drawn) [Compound 18] | > 1700 nM | – | > 300 nM | –
17 | O=C1CCC(N2Cc3ccc(CCC(=O)Nc4cc(Cl)cc(OC5CCNC5)c4)cc3C2=O)C(=O)N1 (stereo not drawn) [Compound 19] | 500 to 1100 nM | < 1100 nM | > 300 nM | –
18 | O=C1CCC(N2Cc3ccc(CCC(=O)Nc4ccc(N5CCCCC5)nc4)cc3C2=O)C(=O)N1 (stereo not drawn) [Compound 20] | 500 to 1100 nM | < 1100 nM | 30 to 300 nM | –

Row | Compound | IC50 [1, 2] | IC50 [1, 3] | DC50 (GSPT1; [4]) | DC50 (GSPT1; [5])
19 | O=C1CCC(N2Cc3ccc(CCC(=O)N4CCC(Oc5ccccc5)C4)cc3C2=O)C(=O)N1 (stereo not drawn) [Compound 21] | > 1700 nM | – | > 300 nM | –
20 | Cc1c(Cl)cc(NC(=O)CCc2ccc3c(c2)C(=O)N(C2CCC(=O)NC2=O)C3)cc1CN1CC2CC1CO2 (stereo not drawn) [Compound 22] | 500 to 1100 nM | < 1100 nM | 30 to 300 nM | –
21 | O=C1CCC(N2Cc3ccc(CCC(=O)Nc4cc(Cl)cc(OC(F)F)c4)cc3C2=O)C(=O)N1 (stereo not drawn) [Compound 23] | > 1700 nM | – | ≤ 30 nM | 27 nM
22 | Cc1c(Cl)cc(NC(=O)CCc2ccc3c(c2)C(=O)N(C2CCC(=O)NC2=O)C3)cc1CN1CC2CCC(C1)O2 (stereo not drawn) [Compound 24] | 1100 to 1700 nM | – | 30 to 300 nM | –
23 | O=C1CCC(N2Cc3ccc(CCC(=O)Nc4cc(Cl)cc(OCC5CCNC5)c4)cc3C2=O)C(=O)N1 (stereo not drawn) [Compound 25] | 500 to 1100 nM | < 1100 nM | > 300 nM | –
24 | O=C1CCC(N2Cc3ccc(CCC(=O)Nc4ccc5c(c4)OCC5)cc3C2=O)C(=O)N1 (stereo not drawn) [Compound 26] | 500 to 1100 nM | < 1100 nM | > 300 nM | –
25 | O=C1CCC(N2Cc3ccc(CCC(=O)N4CCN(c5ccccc5)CC4)cc3C2=O)C(=O)N1 (stereo not drawn) [Compound 27] | > 1700 nM | – | > 300 nM | –
26 | O=C1CCC(N2Cc3ccc(CCC(=O)Nc4cc(F)cc(OC(F)F)c4)cc3C2=O)C(=O)N1 (stereo not drawn) [Compound 28] | 500 to 1100 nM | < 1100 nM | 30 to 300 nM | –
27 | Cc1ccc(NC(=O)CCc2ccc3c(c2)C(=O)N(C2CCC(=O)NC2=O)C3)cc1OC(F)F (stereo not drawn) [Compound 29] | 1100 to 1700 nM | – | ≤ 30 nM | 6 nM
28 | O=C1CCC(N2Cc3ccc(CCC(=O)Nc4ccc(F)c(OC(F)F)c4)cc3C2=O)C(=O)N1 (stereo not drawn) [Compound 30] | 500 to 1100 nM | < 1100 nM | 30 to 300 nM | –
29 | CN1CCC(Oc2cc(Cl)cc(NC(=O)CCc3ccc4c(c3)C(=O)N(C3CCC(=O)NC3=O)C4)c2)C1 (stereo not drawn) [Compound 31] | 500 to 1100 nM | < 1100 nM | 30 to 300 nM | –
30 | CCOc1cc(NC(=O)CCc2ccc3c(c2)C(=O)N(C2CCC(=O)NC2=O)C3)ccc1C (stereo not drawn) [Compound 32] | 500 to 1100 nM | < 1100 nM | 30 to 300 nM | –
31 | COc1cc(NC(=O)CCc2ccc3c(c2)C(=O)N(C2CCC(=O)NC2=O)C3)ccc1C (stereo not drawn) [Compound 33] | 500 to 1100 nM | < 1100 nM | 30 to 300 nM | –
32 | O=C1CCC(N2Cc3ccc(CCC(=O)Nc4ccc(-c5ccccc5)nc4)cc3C2=O)C(=O)N1 (stereo not drawn) [Compound 34] | ≤ 500 nM | < 1100 nM | ≤ 30 nM | 13 nM
33 | Cc1c(CN2CCOCC2)cc(NC(=O)CCc2ccc3c(c2)C(=O)N(C2CCC(=O)NC2=O)C3)cc1OC(F)F (stereo not drawn) [Compound 35] | 500 to 1100 nM | < 1100 nM | ≤ 30 nM | 12 nM
34 | COc1cc(NC(=O)CCc2ccc3c(c2)C(=O)N(C2CCC(=O)NC2=O)C3)cnc1C (stereo not drawn) [Compound 36] | 1100 to 1700 nM | – | > 300 nM | –
35 | CN1CCC(COc2cc(Cl)cc(NC(=O)CCc3ccc4c(c3)C(=O)N(C3CCC(=O)NC3=O)C4)c2)C1 (stereo not drawn) [Compound 37] | 500 to 1100 nM | < 1100 nM | > 300 nM | –
36 | O=C1CCC(N2Cc3ccc(CCC(=O)Nc4ccc(C5CC5)cc4)cc3C2=O)C(=O)N1 (stereo not drawn) [Compound 38] | ≤ 500 nM | < 1100 nM | > 300 nM | –
